Measurements from ChEMBL document CHEMBL4699525, “Design and synthesis of new indanol-1,2,3-triazole derivatives as potent antitubercular and antimicrobial agents” (Bioorg Med Chem Lett, 2020).
≈ marks a conversion by molar mass, not a printed value.

Tests used:
Staphylococcus aureus [1] = experiment: Antibacterial activity against Staphylococcus aureus assessed as inhibition of bacterial growth incubated for overnight by CLSI based method; format: functional
Candida albicans [2] = experiment: Antifungal activity against Candida albicans assessed as inhibition of fungal growth incubated for 24 hrs by agar well diffusion method; format: functional
Aspergillus niger [3] = experiment: Antifungal activity against Aspergillus niger assessed as inhibition of fungal growth incubated for 24 hrs by agar well diffusion method; format: functional
Salmonella typhi = experiment: Antibacterial activity against Salmonella typhi assessed as inhibition of bacterial growth incubated for 24 hrs by agar well diffusion method; format: functional, Salmonella enterica subsp. enterica serovar Typhi
[4] = biological target: T1, Enoyl-[acyl-carrier-protein] reductase [NADH] (Mycobacterium tuberculosis) (UniProt P9WGR1); experiment: Inhibition of InhA in Mycobacterium tuberculosis H37Rv assessed antitubercular activity by measuring inhibition of bacterial growth incubated for 7 days by MABA assay; conditions: time 7.0 day
T1 sequence (whole entry): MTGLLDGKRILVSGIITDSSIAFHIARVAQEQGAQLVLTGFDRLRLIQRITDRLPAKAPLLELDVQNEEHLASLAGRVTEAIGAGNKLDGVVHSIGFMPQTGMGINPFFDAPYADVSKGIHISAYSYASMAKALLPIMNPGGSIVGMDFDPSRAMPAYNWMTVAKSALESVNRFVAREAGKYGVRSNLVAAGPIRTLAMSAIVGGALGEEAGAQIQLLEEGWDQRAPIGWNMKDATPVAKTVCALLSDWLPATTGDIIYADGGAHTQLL

Klebsiella aerogenes [5] = experiment: Antibacterial activity against Enterobacter aerogenes assessed as inhibition of bacterial growth incubated for 24 hrs by agar well diffusion method; format: functional
Aspergillus niger [6] = experiment: Antifungal activity against Aspergillus niger assessed as inhibition of […] growth incubated for overnight by CLSI based method; format: functional
Saccharomyces cerevisiae [7] = experiment: Antifungal activity against Saccharomyces cerevisiae assessed as inhibition of […] growth incubated for overnight by CLSI based method; format: functional
Candida albicans [8] = experiment: Antifungal activity against Candida albicans assessed as inhibition of […] growth incubated for overnight by CLSI based method; format: functional
Bacillus cereus = experiment: Antibacterial activity against Bacillus cereus assessed as inhibition of bacterial growth incubated for 24 hrs by agar well diffusion method; format: functional
Escherichia coli = experiment: Antibacterial activity against Escherichia coli assessed as inhibition of bacterial growth incubated for 24 hrs by agar well diffusion method; format: functional
Shigella boydii [9] = experiment: Antibacterial activity against Shigella boydii assessed as inhibition of bacterial growth incubated for 24 hrs by agar well diffusion method; format: functional
Klebsiella aerogenes [10] = experiment: Antibacterial activity against Enterobacter aerogenes assessed as inhibition of bacterial growth incubated for overnight by CLSI based method; format: functional
[11] = system: Salmonella enterica subsp. enterica serovar Abony; experiment: Antibacterial activity against Salmonella abony assessed as inhibition of bacterial growth incubated for 24 hrs by agar well diffusion method; format: functional
Bacillus subtilis = experiment: Antibacterial activity against Bacillus subtilis assessed as inhibition of bacterial growth incubated for 24 hrs by agar well diffusion method; format: functional
Saccharomyces cerevisiae [12] = experiment: Antifungal activity against Saccharomyces cerevisiae assessed as inhibition of fungal growth incubated for 24 hrs by agar well diffusion method; format: functional
Staphylococcus aureus [13] = experiment: Antibacterial activity against Staphylococcus aureus assessed as inhibition of bacterial growth incubated for 24 hrs by agar well diffusion method; format: functional
Pseudomonas aeruginosa = experiment: Antibacterial activity against Pseudomonas aeruginosa assessed as inhibition of bacterial growth incubated for 24 hrs by agar well diffusion method; format: functional
Shigella boydii [14] = experiment: Antibacterial activity against Shigella boydii assessed as inhibition of bacterial growth incubated for overnight by CLSI based method; format: functional
[15] = Cytotoxicity against human HEK293 cells assessed as inhibition of cell growth at 25 uM incubated for 48 hrs by MTT assay; format: cell-based

SMILES: O=C(Cn1cc(COc2ccc3c(c2)CCC3)nn1)Nc1cccc(Cl)c1
- MIC (Staphylococcus aureus [1]): 135 µg/mL (≈ 353 µM)
- diameter of the inhibition zone (DIZ) (Candida albicans [2]): 10 mm
- diameter of the inhibition zone (DIZ) (Aspergillus niger [3]): 8 mm
- diameter of the inhibition zone (DIZ) (Salmonella typhi): 13 mm
- MIC [4]: > 25 µM
- diameter of the inhibition zone (DIZ) (Klebsiella aerogenes [5]): 12 mm
- MIC (Aspergillus niger [6]): 190 µg/mL (≈ 496 µM)
- MIC (Saccharomyces cerevisiae [7]): 230 µg/mL (≈ 601 µM)
- MIC (Candida albicans [8]): 165 µg/mL (≈ 431 µM)
- diameter of the inhibition zone (DIZ) (Bacillus cereus): 10 mm
- diameter of the inhibition zone (DIZ) (Escherichia coli): 13 mm
- diameter of the inhibition zone (DIZ) (Shigella boydii [9]): 11 mm
- MIC (Klebsiella aerogenes [10]): 110 µg/mL (≈ 287 µM)
- diameter of the inhibition zone (DIZ) [11]: 7 mm
- diameter of the inhibition zone (DIZ) (Bacillus subtilis): 12 mm
- diameter of the inhibition zone (DIZ) (Saccharomyces cerevisiae [12]): 5 mm
- diameter of the inhibition zone (DIZ) (Staphylococcus aureus [13]): 10 mm
- diameter of the inhibition zone (DIZ) (Pseudomonas aeruginosa): 9 mm
- MIC (Shigella boydii [14]): 140 µg/mL (≈ 366 µM)

SMILES: Cc1ccc(-n2cc(COc3ccc4c(c3)CCC4)nn2)c(C)c1
- MIC (Staphylococcus aureus [1]): 150 µg/mL (≈ 470 µM)
- diameter of the inhibition zone (DIZ) (Candida albicans [2]): 11 mm
- diameter of the inhibition zone (DIZ) (Aspergillus niger [3]): 10 mm
- diameter of the inhibition zone (DIZ) (Salmonella typhi): 12 mm
- MIC [4]: 1.56 µM (≈ 0.498 µg/mL)
- diameter of the inhibition zone (DIZ) (Klebsiella aerogenes [5]): 10 mm
- MIC (Aspergillus niger [6]): 70 µg/mL (≈ 219 µM)
- MIC (Saccharomyces cerevisiae [7]): 50 µg/mL (≈ 157 µM)
- MIC (Candida albicans [8]): 60 µg/mL (≈ 188 µM)
- inhibition at 48 h, 25 µM [15]: 19.9%
- diameter of the inhibition zone (DIZ) (Bacillus cereus): 10 mm
- diameter of the inhibition zone (DIZ) (Escherichia coli): 12 mm
- diameter of the inhibition zone (DIZ) (Shigella boydii [9]): 11 mm
- MIC (Klebsiella aerogenes [10]): 75 µg/mL (≈ 235 µM)
- diameter of the inhibition zone (DIZ) [11]: 9 mm
- diameter of the inhibition zone (DIZ) (Bacillus subtilis): 10 mm
- diameter of the inhibition zone (DIZ) (Saccharomyces cerevisiae [12]): 12 mm
- diameter of the inhibition zone (DIZ) (Staphylococcus aureus [13]): 7 mm
- diameter of the inhibition zone (DIZ) (Pseudomonas aeruginosa): 13 mm
- MIC (Shigella boydii [14]): 55 µg/mL (≈ 172 µM)

SMILES: O=[N+]([O-])c1cccc(-n2cc(COc3ccc4c(c3)CCC4)nn2)c1
- MIC (Staphylococcus aureus [1]): 165 µg/mL (≈ 491 µM)
- diameter of the inhibition zone (DIZ) (Candida albicans [2]): 12 mm
- diameter of the inhibition zone (DIZ) (Aspergillus niger [3]): 6 mm
- diameter of the inhibition zone (DIZ) (Salmonella typhi): 8 mm
- MIC [4]: > 25 µM
- diameter of the inhibition zone (DIZ) (Klebsiella aerogenes [5]): 14 mm
- MIC (Aspergillus niger [6]): 220 µg/mL (≈ 654 µM)
- MIC (Saccharomyces cerevisiae [7]): 180 µg/mL (≈ 535 µM)
- MIC (Candida albicans [8]): 125 µg/mL (≈ 372 µM)
- diameter of the inhibition zone (DIZ) (Bacillus cereus): 13 mm
- diameter of the inhibition zone (DIZ) (Escherichia coli): 12 mm
- diameter of the inhibition zone (DIZ) (Shigella boydii [9]): 10 mm
- MIC (Klebsiella aerogenes [10]): 70 µg/mL (≈ 208 µM)
- diameter of the inhibition zone (DIZ) [11]: 8 mm
- diameter of the inhibition zone (DIZ) (Bacillus subtilis): 12 mm
- diameter of the inhibition zone (DIZ) (Saccharomyces cerevisiae [12]): 7 mm
- diameter of the inhibition zone (DIZ) (Staphylococcus aureus [13]): 8 mm
- diameter of the inhibition zone (DIZ) (Pseudomonas aeruginosa): 11 mm
- MIC (Shigella boydii [14]): 90 µg/mL (≈ 268 µM)

SMILES: COc1ccccc1NC(=O)Cn1cc(COc2ccc3c(c2)CCC3)nn1
- MIC (Staphylococcus aureus [1]): 120 µg/mL (≈ 317 µM)
- diameter of the inhibition zone (DIZ) (Candida albicans [2]): 12 mm
- diameter of the inhibition zone (DIZ) (Aspergillus niger [3]): 10 mm
- diameter of the inhibition zone (DIZ) (Salmonella typhi): 12 mm
- MIC [4]: 6.25 µM (≈ 2.37 µg/mL)
- diameter of the inhibition zone (DIZ) (Klebsiella aerogenes [5]): 13 mm
- MIC (Aspergillus niger [6]): 170 µg/mL (≈ 449 µM)
- MIC (Saccharomyces cerevisiae [7]): 210 µg/mL (≈ 555 µM)
- MIC (Candida albicans [8]): 180 µg/mL (≈ 476 µM)
- inhibition at 48 h, 25 µM [15]: 23.4%
- diameter of the inhibition zone (DIZ) (Escherichia coli): 10 mm
- diameter of the inhibition zone (DIZ) (Shigella boydii [9]): 12 mm
- MIC (Klebsiella aerogenes [10]): 95 µg/mL (≈ 251 µM)
- diameter of the inhibition zone (DIZ) [11]: 11 mm
- diameter of the inhibition zone (DIZ) (Bacillus subtilis): 10 mm
- diameter of the inhibition zone (DIZ) (Saccharomyces cerevisiae [12]): 10 mm
- diameter of the inhibition zone (DIZ) (Staphylococcus aureus [13]): 12 mm
- diameter of the inhibition zone (DIZ) (Pseudomonas aeruginosa): 8 mm
- MIC (Shigella boydii [14]): 150 µg/mL (≈ 396 µM)
